# Activity calls are given as the source filed them. The rule behind the calls is not given here.
# How the values were obtained:
# HT-29 [1] = experiment: Cytotoxicity against human HT-29 cells assessed as inhibition in cell growth incubated for 72 hrs by MTT assay; format: functional, cell-based; conditions: HT-29, 72 h
# Rattus norvegicus [2] = experiment: Antiinflammatory activity against carrageenan-induced paw edema Sprague-Dawley rat model assessed as inhibition of inflammation at 50 mg/kg, po after 3 hrs relative to control; format: functional; design: scale not given: the % may be the effect or the level left
# [3] = Acute ulcerogenic activity in Sprague-Dawley male rat assessed as change in normal keratin at 50 mg/kg/day, po administered for 3 days by hematoxylin and eosin staining method; format: toxicity, organism-based, Stomach; conditions: in vivo, 72 h, time 3 day
# [4] = Selectivity index, ratio of IC50 for cytotoxicity against human MRC5 cells to IC50 for cytotoxicity against human MCF7 cells; conditions: MRC5 cells versus MCF7 cells
# Ehrlich [5] = experiment: Antitumor activity against mouse Ehrlich solid carcinoma cells bearing adult male swiss albino mouse assessed as decrease in tumor volume at 50 mg/kg, po administered every other day and observed at 9 days; format: functional, organism-based; conditions: time 9.0 day
# Rattus norvegicus [6] = experiment: Antiinflammatory activity against carrageenan-induced paw edema Sprague-Dawley rat model assessed as inhibition of inflammation at 50 mg/kg, po after 5 hrs relative to control; format: functional; design: scale not given: the % may be the effect or the level left
# HT-29 [7] = experiment: Induction of apoptosis in human HT-29 cells assessed as accumulation of cells at late apoptotic stage at 0.25 uM incubated for 24 hrs by Annexin V-FITC/propidium iodide staining based flow cytometry analysis (reference value: 0.2%); format: functional
# Sus scrofa = organism: Sus scrofa; experiment: Inhibition of porcine brain tubulin polymerization at 1 uM by fluorescence-based tubulin polymerization assay
# [8] = Acute ulcerogenic activity in Sprague-Dawley male rat assessed as average severity of ulcers at 50 mg/kg/day, po administered for 3 days; format: toxicity, organism-based; conditions: in vivo, 72 h, time 3 day
# HT-29 [9] = experiment: Anti-migration activity in human HT-29 cells assessed as suppression in cell migration at 0.250 uM incubated 48 hrs by wound-healing assay; format: functional, cell-based; conditions: dose 0.25 µM
# HT-29 [10] = experiment: Induction of apoptosis in human HT-29 cells assessed as accumulation of cells at early apoptotic stage at 0.25 uM incubated for 24 hrs by Annexin V-FITC/propidium iodide staining based flow cytometry analysis (reference value: 0.1%); format: functional
# MCF7 = experiment: Cytotoxicity against human MCF7 cells assessed as inhibition in cell growth incubated for 72 hrs by MTT assay; format: functional, cell-based; conditions: MCF7, 72 h
# HT-29 [11] = experiment: Induction of apoptosis in human HT-29 cells assessed as accumulation of cells at viable stage at 0.25 uM incubated for 24 hrs by Annexin V-FITC/propidium iodide staining based flow cytometry analysis (Rvb=91.7%); format: functional
# HT-29 [12] = experiment: Induction of apoptosis in human HT-29 cells assessed as accumulation of cells at necrotic stage at 0.25 uM incubated for 24 hrs by Annexin V-FITC/propidium iodide staining based flow cytometry analysis (reference value: 8.1%); format: functional
# Rattus norvegicus [13] = experiment: Antiinflammatory activity against carrageenan-induced paw edema Sprague-Dawley rat model assessed as inhibition of inflammation at 50 mg/kg, po after 1 hr relative to control; format: functional; design: scale not given: the % may be the effect or the level left
# [14] = Acute ulcerogenic activity in Sprague-Dawley male rat assessed as incidence of ulcer/10 animal at 50 mg/kg/day, po administered for 3 days; format: toxicity, organism-based; conditions: in vivo, 72 h, time 3 day
# Rattus norvegicus [15] = experiment: Antiinflammatory activity against carrageenan-induced paw edema Sprague-Dawley rat model assessed as inhibition of paw edema by measuring edema thickness at 50 mg/kg, po measured after 1 hr (reference value: 0.71 +/- 0.03 mm); format: functional
# Ehrlich [16] = experiment: Antitumor activity against mouse Ehrlich solid carcinoma cells bearing adult male swiss albino mouse assessed as tumor growth inhibition at 50 mg/kg, po administered every other day and observed at 13 days relative to control; format: functional; conditions: 312 h, time 13 day, read-out: TGI
# [17] = Acute ulcerogenic activity in Sprague-Dawley male rat assessed as average number of ulcers at 50 mg/kg/day, po administered for 3 days; format: toxicity, organism-based; conditions: in vivo, 72 h, time 3 day
# Ehrlich [18] = experiment: Antitumor activity against mouse Ehrlich solid carcinoma cells bearing adult male swiss albino mouse assessed as decrease in tumor weight at 50 mg/kg, po administered every other day and observed at 14 days; format: functional, organism-based; conditions: time 14.0 day
# Ehrlich [19] = experiment: Antitumor activity against mouse Ehrlich solid carcinoma cells bearing adult male swiss albino mouse assessed as decrease in tumor volume at 50 mg/kg, po administered every other day and observed at 13 days; format: functional, organism-based; conditions: time 13.0 day
# [20] = molecular target: T1, Prostaglandin G/H synthase 1 (Ovis aries, UniProt P05979); experiment: Inhibition of ovine COX-1
# T1 sequence (P05979 whole entry): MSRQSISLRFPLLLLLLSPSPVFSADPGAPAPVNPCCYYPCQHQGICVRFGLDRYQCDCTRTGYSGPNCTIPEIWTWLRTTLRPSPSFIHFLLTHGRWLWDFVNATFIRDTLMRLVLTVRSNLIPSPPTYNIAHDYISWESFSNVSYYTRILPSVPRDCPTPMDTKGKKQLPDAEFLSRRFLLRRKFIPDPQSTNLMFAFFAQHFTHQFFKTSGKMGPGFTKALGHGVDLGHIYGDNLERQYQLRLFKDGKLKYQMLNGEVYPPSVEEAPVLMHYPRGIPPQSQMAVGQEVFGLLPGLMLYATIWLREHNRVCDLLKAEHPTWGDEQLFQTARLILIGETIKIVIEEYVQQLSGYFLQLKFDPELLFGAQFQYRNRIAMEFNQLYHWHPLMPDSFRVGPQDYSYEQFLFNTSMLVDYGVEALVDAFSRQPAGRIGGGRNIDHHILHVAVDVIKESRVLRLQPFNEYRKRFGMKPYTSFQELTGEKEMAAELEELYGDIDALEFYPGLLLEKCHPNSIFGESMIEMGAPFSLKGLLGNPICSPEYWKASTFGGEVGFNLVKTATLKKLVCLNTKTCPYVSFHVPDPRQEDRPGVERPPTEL
# [21] = Selectivity index, ratio of IC50 for cytotoxicity against human MRC5 cells to IC50 for cytotoxicity against human HT-29 cells; conditions: MRC5 cells versus HT-29 cells
# [22] = Selectivity index, ratio of IC50 for cytotoxicity against human MRC5 cells to IC50 for cytotoxicity against human A2780 cells; conditions: MRC5 cells versus A2780 cells
# HT-29 [23] = experiment: Anticlonogenic activity against human HT-29 cells assessed as reduction in number of colonies at 0.25 uM incubated for 24 hrs by clonogenic survival assay; format: functional, cell-based
# [24] = Acute ulcerogenic activity in Sprague-Dawley male rat assessed as change in normal lamina propria at 50 mg/kg/day, po administered for 3 days by hematoxylin and eosin staining method; format: toxicity, organism-based, Stomach; conditions: in vivo, 72 h, time 3 day
# [25] = Cytotoxicity against human MRC5 cells assessed as inhibition in cell growth incubated for 72 hrs by MTT assay; format: toxicity, cell-based
# [26] = Acute ulcerogenic activity in Sprague-Dawley male rat assessed as change in normal glands at 50 mg/kg/day, po administered for 3 days by hematoxylin and eosin staining method; format: toxicity, organism-based, Stomach; conditions: in vivo, 72 h, time 3 day
# A2780 = experiment: Cytotoxicity against human A2780 cells assessed as inhibition in cell growth incubated for 72 hrs by MTT assay; format: functional, cell-based; conditions: A2780, 72 h
# [27] = Acute ulcerogenic activity in Sprague-Dawley male rat assessed as ulcer index at 50 mg/kg/day, po administered for 3 days; format: toxicity, organism-based; conditions: in vivo, 72 h, time 3 day
# Rattus norvegicus [28] = experiment: Antiinflammatory activity against carrageenan-induced paw edema Sprague-Dawley rat model assessed as inhibition of paw edema by measuring edema thickness at 50 mg/kg, po measured after 3 hrs (reference value: 1.41 +/- 0.13 mm); format: functional
# Ehrlich [29] = experiment: Antitumor activity against mouse Ehrlich solid carcinoma cells bearing adult male swiss albino mouse assessed as decrease in tumor volume at 50 mg/kg, po administered every other day and observed at 5 days; format: functional, organism-based; conditions: time 5.0 day
# Rattus norvegicus [30] = experiment: Antiinflammatory activity against carrageenan-induced paw edema Sprague-Dawley rat model assessed as inhibition of paw edema by measuring edema thickness at 50 mg/kg, po measured after 5 hrs (reference value: 1.39 +/- 0.11 mm); format: functional
# [31] = Acute ulcerogenic activity in Sprague-Dawley male rat assessed as nonactivated glands in intact mucosa at 50 mg/kg/day, po administered for 3 days by hematoxylin and eosin staining method; format: toxicity, organism-based, Stomach; conditions: in vivo, 72 h, time 3 day
# [32] = Acute ulcerogenic activity in Sprague-Dawley male rat assessed as congestion in intact mucosa at 50 mg/kg/day, po administered for 3 days by hematoxylin and eosin staining method; format: toxicity, organism-based, Stomach; conditions: in vivo, 72 h, time 3 day
# [33] = Acute ulcerogenic activity in Sprague-Dawley male rat by measuring filtration of inflammatory cells in edema at 50 mg/kg/day, po administered for 3 days by hematoxylin and eosin staining method; format: toxicity, organism-based, Stomach; conditions: in vivo, 72 h, time 3 day
compound,measurement,setting,value
COc1ccc(NC(=O)COc2ccc(N3C(=O)CSC3c3ccccc3)cc2)cc1 (stereo not drawn),IC50,HT-29 [1],0.24 µM
same,Activity,Rattus norvegicus [2],32.7%
same,Activity,[3],Non-Toxic
same,selectivity ratio at 72 h,[4],4.13
same,Activity,Ehrlich [5],Active
same,Activity,Rattus norvegicus [6],59.7%
same,Activity,HT-29 [7],5.3%
same,inhibition,Sus scrofa,inactive
same,Activity,[8],1
same,Activity,HT-29 [9],Active
same,Activity,HT-29 [10],9%
same,IC50,MCF7,1.51 µM
same,Activity,HT-29 [11],75.8%
same,Activity,HT-29 [12],9.8%
same,Activity,Rattus norvegicus [13],15.3%
same,Activity,[14],3.33%
same,Activity,Rattus norvegicus [15],0.48 mm
same,inhibition in vivo at 50 mg/kg,Ehrlich [16],27.4%
same,Activity,[17],0.67
same,Activity,Ehrlich [18],Active
same,Activity,Ehrlich [19],Active
same,IC50,[20],0.62 µM
same,selectivity ratio at 72 h,[21],25.9
same,selectivity ratio at 72 h,[22],9.3
same,Activity,HT-29 [23],Active
same,Activity,[24],Non-Toxic
same,IC50 at 72 h,[25],6.23 µM
same,Activity,[26],Non-Toxic
same,IC50,A2780,0.67 µM
same,UI,[27],5
same,Activity,Rattus norvegicus [28],0.56 mm
same,Activity,Ehrlich [29],Active
same,Activity,Rattus norvegicus [30],0.56 mm
Cc1ccc(-c2cc(C(F)(F)F)nn2-c2ccc(S(N)(=O)=O)cc2)cc1 [CELECOXIB],Activity,[31],Non-Toxic
same,Activity,[32],Toxic
same,IC50,HT-29 [1],32.5 µM
same,Activity,Rattus norvegicus [6],64.03%
same,Activity,[8],1
same,IC50,MCF7,15.4 µM
same,Activity,Rattus norvegicus [13],61.97%
same,Activity,[14],6.67%
same,Activity,Rattus norvegicus [15],0.27 mm
same,Activity,[17],0.67
same,Activity,[33],Non-Toxic
same,IC50,A2780,18.1 µM
same,UI,[27],8.34
same,Activity,Rattus norvegicus [28],0.34 mm
same,Activity,Rattus norvegicus [30],0.5 mm

# Source: ChEMBL document CHEMBL5625227, “Discovery and optimization of 2,3-diaryl-1,3-thiazolidin-4-one-based derivatives as potent and selective cytotoxic agents with anti-inflammatory activity” (Eur J Med Chem, 2023)
